From PMC5981863 (ACS infectious diseases, 2017)
In brackets after ≈: the same amount, converted by molar mass.

Experiments:
[1] = system: E. coli DH10B pBCSK, blaADC-7, R340A; assay: MIC, agar dilution and liquid microdilution; format: cell-based, Escherichia coli
[2] = system: E. coli DH10B pBCSK, blaADC-7, N213A; assay: MIC, agar dilution and liquid microdilution; format: cell-based, Escherichia coli
[3] = system: E. coli DH10B pBCSK, blaADC-7, R340K; assay: MIC, agar dilution and liquid microdilution; format: cell-based, Escherichia coli
A. baumannii M9 = assay: MIC, agar dilution and liquid microdilution; format: cell-based
E. coli DH10B = assay: MIC, agar dilution and liquid microdilution; format: cell-based, Escherichia coli
[4] = system: E. coli DH10B pBCSK, blaADC-7; assay: MIC, agar dilution and liquid microdilution; format: cell-based, Escherichia coli
ADC-7/R340A mutant = assay: Competition kinetics with nitrocefin; format: biochemical, Acinetobacter baumannii
ADC-7 = assay: Thermal denaturation by circular dichroism; format: binding, Acinetobacter baumannii; settings: ADC-7 alone Tm ≈61 °C
[5] = MIC of CAZ in combination with 4 μg/mL BATSI compound

SMILES: CC(C)(O/N=C(\C(=O)N[C@@H]1C(=O)N2C(C(=O)[O-])=C(C[n+]3ccccc3)CS[C@H]12)c1csc(N)n1)C(=O)O [CAZ, ceftazidime, reference compound]
- MIC ([1]; Escherichia coli): 32 µg/mL (≈ 58.5 µM)
- MIC ([2]; Escherichia coli): 32 µg/mL (≈ 58.5 µM)
- MIC ([3]; Escherichia coli): 32 µg/mL (≈ 58.5 µM)
- MIC (A. baumannii M9; Acinetobacter baumannii, M9): > 64 µg/mL
- MIC (A. baumannii M9; CAZ alone): >64 µg/mL
- MIC (E. coli DH10B; Escherichia coli, DH10B): 1 µg/mL (≈ 1.83 µM)
- MIC ([4]; Escherichia coli): 64 µg/mL (≈ 117 µM)

SMILES: O=S(=O)(NCB(O)O)c1ccc(-c2nn[nH]n2)cc1 [CR157]
- MIC [1, 5]: 0.5 µg/mL
- MIC [2, 5]: 2 µg/mL
- MIC [3, 5]: 1 µg/mL
- MIC (A. baumannii M9; [5]): 8 µg/mL
- MIC (E. coli DH10B; [5]): 0.5 µg/mL
- MIC [4, 5]: 1 µg/mL

SMILES: O=S(=O)(NCB(O)O)c1ccc(-c2nn[nH]n2)nc1 [CR161]
- MIC [1, 5]: 1 µg/mL
- MIC [2, 5]: 2 µg/mL
- MIC [3, 5]: 1 µg/mL
- MIC (E. coli DH10B; [5]): 0.5 µg/mL
- MIC [4, 5]: 0.5 µg/mL

SMILES: O=C(O)c1cccc(CS(=O)(=O)NCB(O)O)c1 [CR167]
- MIC [1, 5]: 2 µg/mL
- MIC [2, 5]: 4 µg/mL
- MIC [3, 5]: 4 µg/mL
- MIC (A. baumannii M9; [5]): 16 µg/mL
- MIC (E. coli DH10B; [5]): 0.5 µg/mL
- MIC [4, 5]: 1 µg/mL

SMILES: O=S(=O)(NCB(O)O)c1ccc(-c2nn[nH]n2)cc1C(F)(F)F [CR192]
- MIC [1, 5]: 0.5 µg/mL
- MIC [2, 5]: 1 µg/mL
- MIC [3, 5]: 2 µg/mL
- MIC (A. baumannii M9; [5]): 8 µg/mL
- Ki (ADC-7/R340A mutant): 8.3 nM
- MIC (E. coli DH10B; [5]): 0.5 µg/mL
- Tm of ADC-7/compound complex (ADC-7): ~70 °C
- MIC [4, 5]: 2 µg/mL

SMILES: O=C(Cc1cccs1)NCB(O)O [achiral cephalothin, reference compound]
- MIC [1, 5]: 32 µg/mL
- MIC [2, 5]: 32 µg/mL
- MIC [3, 5]: 32 µg/mL
- MIC (A. baumannii M9; [5]): 32 µg/mL
- MIC (E. coli DH10B; [5]): 0.5 µg/mL
- MIC [4, 5]: 32 µg/mL
